{"source": "patent US20190298775A1", "about": "“LIVER ORGANOID COMPOSITIONS AND METHODS OF MAKING AND USING SAME” (Children's Hospital Medical Center, priority 2016, published 2019)", "key": {"[1]": {"system": "liver organoids", "test": "Lipid accumulation in organoids after oleic acid (BODIPY live staining)", "assay_type": "cell-based, human", "conditions": "3 days after oleic acid treatment", "description": "Images were captured sequentially using fluorescent microscopy BZ-9000. […] The following regents or kits were used: BODIPY® 493/503 for lipids (Thermo Fisher Scientific), and SiR Actin Kit for cytoskeleton (USA Scientific, FL, USA), CellROX® Green Reagent for ROS (Fisher Scientific), TMRM (Thermo Fisher Scientific) for mitochondria. […] ROS production, mitochondria size and number were analyzed by IMARIS 8."}, "[2]": {"system": "human iPSC-derived liver organoids", "test": "Albumin secretion of organoids (ELISA)", "assay_type": "cell-based", "description": "On Day 7-8, definitive endoderm organoids with plated cells were gently pipetted to delaminate from dishes. Isolated spheroids were centrifuged at 800 rpm for 3 minutes and, after removing supernatant, embedded in 100% matrigel drop on the dishes. The plates were placed at 37° C. in an atmosphere of 5% CO2/95% air for 5-15 min. After the Matrigel was solidified, Advanced DMEM/F12 was added with B27, N2 and Retinoic acid (RA; Sigma, St. Louis, Mo.) 2 μM for 1-5 days. The media was replaced every other day. After RA treatment, organoids embedded in Matrigel drop were cultured in Hepatocyte culture medium (HCM Lonza, Walkersville, Md.) with 10 ng/mL hepatocyte growth factor (HGF; PeproTech, Rocky Hill, N.J.), 0.1 μM Dexamethasone (Dex; Sigma) and 20 ng/mL Oncostatin M (OSM; R&D Systems). Cultures for cell differentiation were maintained at 37° C. in an atmosphere of 5% CO2/95% air and the medium was replaced every 3 days. Around Day 20-30, organoids embedded in Matrigel drop were isolated by scratching and gentle pipetting for any analyses.\nFor measuring albumin, fibrinogen and complement factors secreted level of organoids, 200 μL of culture supernatant of organoids on Ultra-Low attachment 96 well plates (Corning) were collected. The culture supernatants were collected and stored at −80° C. until use. The supernatant was assayed with Human Albumin ELISA Quantitation Set (Bethyl Laboratories, Inc., TX, USA) and fibrinogen (Thermo Fisher Scientific) according to the manufacturer's instructions. For analyzing complement factors, supernatants were measured with Luminex System (Luminex Corporation, Austin, Tex.) according to the manufacturer's instructions. To calculate albumin production per the number of cells, the linear regression equation of cell numbers by diameter of an organoid was used. For measuring total bile acid secreted level intra-luminal organoids, fluid inside organoids was absorbed using microinjection Nanoject II (Drummond Scientific, Broomall, Pa., USA). Fluid absorbed was dilute in PBS and assayed with Total Bile Acid ELISA Kit (Antibodies-online, Inc., GA, USA). To calculate the volume of total bile acid, the number of cells in organoid was calculated using the linear regression equation in the same manner for albumin production and the molecular weight of cholic acid was used for calculation and comparing with volume in previous report."}, "[3]": {"system": "bile transport activity in liver organoids", "protocol": "To determine if FD can be used for live assessment of transport capacity without exchanging the medium and adjusting exposure, chronological hepatobiliary transport activity was further investigated with time-lapse imaging. […] The opposite directionality of this transport flow was determined by the micro-injection of FD into organoids.\nTo quantify the inhibitory potential for FD excretion, Applicant developed a simple but robust quantification method by determining the fluorescent intensity ratio between outside and inside the organoid by image J (FIG. 4, panel B).\nFluorescein diacetate was used for evaluating bile transport activity in organoids. Around Day 25, the organoids were rinsed with PBS, and, fluorescein diacetate was treated to organoids in medium. In addition, to investigate the direction of transport, fluorescein diacetate was injected to organoids using by Nanoject III (Drummond Scientific). After treatment or injection of fluorescein diacetate, images were captured on fluorescent microscopy BZ-X710 (Keyence). […] Changes in brightness or contrast during processing were applied equally across the entire image."}, "[4]": {"system": "lipotoxic organoid model", "test": "Viability in organoids on vulnerable (lipotoxic, oleic acid) condition", "assay_type": "cell-based, human", "description": "Next, 50 μM of Troglitazone was treated with or without 50 μM NAC for 24h. […] Images were captured sequentially using fluorescent microscopy BZ-9000."}, "[5]": {"system": "human liver organoids", "conditions": "for organoid viability / cell viability: human; for organoid viability: 130 μM; for cell viability: 50 μM"}}, "note": "Where two headings read alike, the source gives them in different places."}
{"molecule": "CCCCCCCC/C=C\\CCCCCCCC(=O)O", "note": "[oleic acid]", "values": [{"measurement": "lipid accumulation in organoids", "setting": "[1]", "result": "intense"}]}
{"molecule": "CC1=C(/C=C/C(C)=C/C=C/C(C)=C/C(=O)O)C(C)(C)CCC1", "note": "[RA, retinoic acid]", "values": [{"measurement": "albumin secretion level of organoids at D25", "setting": "[2]; 1 day of RA treatment", "result": 1160, "unit": "ng/mL"}, {"measurement": "albumin secretion level of organoids at D25", "setting": "[2]; 2 days of RA treatment", "result": 1054, "unit": "ng/mL"}, {"measurement": "albumin secretion level of organoids at D25", "setting": "[2]; 3 days of RA treatment", "result": 3092, "unit": "ng/mL"}, {"measurement": "albumin secretion level of organoids at D25", "setting": "[2]; 4 days of RA treatment", "result": 4709, "unit": "ng/mL"}, {"measurement": "albumin secretion level of organoids at D25", "setting": "[2]; 5 days of RA treatment", "result": 3865, "unit": "ng/mL"}]}
{"molecule": "COc1ccccc1Oc1c(NS(=O)(=O)c2ccc(C(C)(C)C)cc2)nc(-c2ncccn2)nc1OCCO", "note": "[Bosentan]", "values": [{"measurement": "efflux of FD (bile transport inhibition)", "setting": "[3]", "result": "significantly decreased"}]}
{"molecule": "CC(=O)N[C@@H](CS)C(=O)O", "note": "[NAC, N-acetylcysteine]", "values": [{"measurement": "cell viability with NAC (rescue from Troglitazone toxicity)", "setting": "[4]; lipotoxic condition, 50 μM Troglitazone with 50 μM NAC, 24h", "result": "significantly improved"}]}
{"molecule": "CN(CCOc1ccc(CC2SC(=O)NC2=O)cc1)c1ccccn1", "note": "(stereo not shown) [Rosiglitazone]", "values": [{"measurement": "toxicity in steatotic organoids", "setting": "[4]", "result": "vulnerable"}]}
{"molecule": "CCc1nn(CCCN2CCN(c3cccc(Cl)c3)CC2)c(=O)n1CCOc1ccccc1", "note": "[Nefazodone]", "values": [{"measurement": "cell viability at 72 hours relative to TOL, DICLO and BOS", "setting": "[5]", "result": "significantly lowered"}, {"measurement": "efflux of FD (bile transport inhibition)", "setting": "[3]", "result": "significantly decreased"}]}
{"molecule": "CCN(CC)C(=O)/C(C#N)=C/c1cc(O)c(O)c([N+](=O)[O-])c1", "note": "[Entacapone]", "values": [{"measurement": "organoid viability", "setting": "[5]; 24 h", "result": 85, "unit": "%"}, {"measurement": "organoid viability", "setting": "[5]; 72 h", "result": 64, "unit": "%"}]}
{"molecule": "Cc1c(C)c2c(c(C)c1O)CCC(C)(COc1ccc(CC3SC(=O)NC3=O)cc1)O2", "note": "(stereo not shown) [Troglitazone]", "values": [{"measurement": "cell viability at 72 hours relative to TOL, DICLO and BOS", "setting": "[5]", "result": "significantly lowered"}, {"measurement": "cell viability", "setting": "[5]; 24 h", "result": 85, "unit": "%"}, {"measurement": "cell viability", "setting": "[5]; 72 h", "result": 67, "unit": "%"}, {"measurement": "efflux of FD (bile transport inhibition)", "setting": "[3]", "result": "significantly decreased"}, {"measurement": "cell viability compared to control", "setting": "[4]; lipotoxic condition (800 μM oleic acid 3 days), 50 μM for 24h, p<0.05", "result": "−40", "unit": "%"}, {"measurement": "organoid morphology on lipotoxic condition", "setting": "[4]; lipotoxic condition, 24h", "result": "massive fragmentation of organoids"}]}
